Values of other authors, collected in US20230329971A1, “MEDICINAL PRODUCT COMPRISING A FLEXIBLE PLASTIC BAG AND AN AQUEOUS, READY-TO-USE SOLUTION OF MIDAZOLAM” (B. Braun Melsungen AG, priority 2020, published 2023).

Settings: in aqueous 5% dextrose solution or aqueous 0.9% sodium chloride solution

With `Cc1ncc2n1-c1ccc(Cl)cc1C(c1ccccc1F)=NC2.Cl` [midazolam hydrochloride, 8-chloro-6-(2-fluorophenyl)-1-methyl-4H-imidazo [1,5-a] [1, 4] benzodiazepine hydrochloride] as the compound, how does the stable over read?
The stable over was 30 days.
